# Test results published in paper PMC3069034, “Structuring Detergents for Extracting and Stabilizing Functional Membrane Proteins” (PLoS ONE, 2011).
# Biological target: BmrA (Bacillus subtilis, UniProt O06967)
# Experiment: intrinsic tryptophan fluorescence quenching of purified protein
# Assay type: binding
# Source text: intrinsic tryptophan fluorescence quenching of purified protein on BmrA | the binding of daunorubicin was similar for both detergents.
# Sequence of BmrA (O06967 whole entry): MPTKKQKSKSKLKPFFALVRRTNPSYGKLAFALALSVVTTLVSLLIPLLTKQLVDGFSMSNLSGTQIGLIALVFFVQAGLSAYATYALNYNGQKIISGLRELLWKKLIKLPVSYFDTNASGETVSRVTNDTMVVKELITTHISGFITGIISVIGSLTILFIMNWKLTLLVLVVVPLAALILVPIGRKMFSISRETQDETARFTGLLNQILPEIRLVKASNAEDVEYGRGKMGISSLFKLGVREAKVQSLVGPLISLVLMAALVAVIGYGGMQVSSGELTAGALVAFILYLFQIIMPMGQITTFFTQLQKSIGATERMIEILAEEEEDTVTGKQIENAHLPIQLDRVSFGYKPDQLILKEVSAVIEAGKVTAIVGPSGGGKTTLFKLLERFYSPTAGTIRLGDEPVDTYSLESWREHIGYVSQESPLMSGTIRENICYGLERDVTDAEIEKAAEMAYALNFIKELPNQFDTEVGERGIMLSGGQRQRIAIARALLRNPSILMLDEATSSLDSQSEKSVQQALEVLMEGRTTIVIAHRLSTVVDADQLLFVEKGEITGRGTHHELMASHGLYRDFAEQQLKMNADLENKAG
smiles,measurement,value
COc1cccc2c1C(=O)c1c(O)c3c(c(O)c1C2=O)C[C@@](O)(C(C)=O)C[C@@H]3O[C@H]1C[C@H](N)[C@H](O)[C@H](C)O1 [daunorubicin],Kd,12.4 ± 0.8 µM
